Laboratory results as given in patent US20170028016A1, “METHODS OF TREATMENT OF C. DIFFICILE SPORES WITH RAMOPLANIN” (Nanotherapeutics, Inc., priority 2014, published 2017).
Entries after “also recorded” stand apart in the source; their conditions may differ.

What was measured:
[1] = tested on: C. difficile spores (ribotype 027); experiment: Antimicrobial survey: continuous exposure of spores in water for six days, spore counts by plating; conditions: 37 °C, D0-D6
[2] = tested on: C. difficile spores (ribotype 027); experiment: Dose-dependent sporicidal assay: spores exposed to ramoplanin, washed 6 times, plated on NaTBA; format: cell-based, Clostridium difficile
Protocol: C. difficile exposure at three levels of ramoplanin (2, 300, 600 μg/mL) and to water was evaluated. […] The wash supernatant fluids (n=6/level) and the final spore suspensions (n=1/level) were counted by plating three 10-fold serial dilutions on NaTaurocholate Blood Agar (NaTBA). Each set of three counts were averaged and compared by t-test.

[3] = tested on: C. difficile spores (ribotype 027); experiment: Longevity / persistence assay: 30 min ramoplanin exposure, six washes, storage in water to day 28, spore counts; format: cell-based, Clostridium difficile; conditions: for spore growth when plated undiluted: to day 28
Protocol: As above, C. difficile (027) was exposed to multiple doses of Ramoplanin (30 min/37 C) and to water, stored at 37 C (anaerobic), and sampled at days D0, D1 D7, D14, and D28. […] From each level at each time, three aliquots were taken (i.e. n=3 for each subsequent assay) and each washed 6 times before the spore resuspension. Each wash (100 only) and spore suspension (100, 10-1 10-2) were counted on NaTBA.

[4] = tested on: C. difficile spores (ribotype 027), exosporium; experiment: Dependency of activity on exosporium: intact versus stripped (processed) spores exposed to ramoplanin; format: cell-based, Clostridium difficile
Protocol: C. difficile (027) exposure (30 min/37 C) to multiple doses of ramoplanin and to water was evaluated. Following ramoplanin exposure for 30 minutes, sampling occurred at days D0, D1, D7, D14, and D28. Without wishing to be bound by any particular theory, sampling over time may characterize the duration of effect having clinical implication on the duration of oral therapy. From each level at each time point, three aliquots were taken (i.e. n=3 for each subsequent assay) and each washed 6 times before the spore re-suspension. Each wash (100 only) and spore suspension (100, 10-1 10-2) were counted on NaTBA and assayed for ramoplanin by a zone of inhibition assay using S. salivarius.
From this example, it appears that the absence of a spore exosporium diminishes the bactericidal effect of Ramoplanin. Following enzyme digest and sonication of spore prep (Cortes et. al.) to removal the exosporium, the spores were exposed (027) to single dose of Ramoplanin (600 mcg/mL) vs water for 30 min and sampled (supernatant and prep) at 1 time point (T0).
Spore exosporia were removed as described by Escobar-Cortes et al. 2013. Proteases and sonication specifically remove the exosporium layer of spores of C. difficile strain 630. […] Briefly, spores were washed four times by centrifugation (10 minutes at 10,000×g) and resuspended in deionized water followed by final resuspension in 15 mL of PBS and sonicated for 90 seconds. Three mL of 10% Sarkosyl (detergent) were added to each preparation and subsequently incubated 15 minutes at room temperature with rocking. Preparations were then centrifuged for 10 minutes at 10,000×g, and pellets were resuspended in 10 mL PBS with 0.1 mL of 1M Tris and 10 mg of lysozyme. Spores were rocked overnight at 37±2° C. and then sonicated for 90 seconds, passed through a 50% solution of sucrose using a swinging bucket rotor for 20 minutes at 4,000×g, and resuspended in a solution containing 3 mL PBS, 200 mM EDTA, 300 ng/mL Proteinase K and 1% Sarkosyl. The spores were further rocked at room temperature for 20 minutes and were passed through a 50% solution of sucrose as previously described by Sabja et al, Id. Next, the spores were washed in deionized water by two centrifugation steps for 10 minutes at 10,000×g and resuspended in deionized water; plating and incubation were carried out as described in the foregoing text.
Adherence of ramoplanin to C. difficile exosporium: In order to determine whether the exosporium was essential to the observed growth-inhibiting effects of ramoplanin, the exosporia were processed as described in Escobar-Cortes et al, 2013, resulting in spores with “stripped” exosporia, and then compared to unprocessed spores (with “intact” exosporia) under three separate conditions (all ramoplanin concentrations were 300 μg/mL): (1) ramoplanin exposure with no subsequent spore processing (i.e., “intact”), (2) ramoplanin exposure with subsequent spore processing (i.e., “stripped”), and (3) water exposure with subsequent spore processing (FIG. 6). […] After ramoplanin exposure, the difference in spore counts between samples that were not processed (with presumed intact exposporia) and samples that were processed (without presumed exposporia) was significant (p<0.0001). No difference in spore count was noted when comparing processed spores that had been exposed to ramoplanin to spores exposed only to water (p=0.389).

Cc1ncc([N+](=O)[O-])n1CCO [metronidazole]
spore counts on continuous exposure, compared to baseline ([1]; metronidazole 10 μg/mL): did not significantly reduce spore counts

CN[C@H](CC(C)C)C(=O)N[C@H]1C(=O)N[C@@H](CC(N)=O)C(=O)N[C@H]2C(=O)N[C@H]3C(=O)N[C@H](C(=O)N[C@H](C(=O)O)c4cc(O)cc(O)c4-c4cc3ccc4O)[C@H](O)c3ccc(c(Cl)c3)Oc3cc2cc(c3O[C@@H]2O[C@H](CO)[C@@H](O)[C@H](O)[C@H]2O[C@H]2C[C@](C)(N)[C@H](O)[C@H](C)O2)Oc2ccc(cc2Cl)[C@H]1O [vancomycin]
spore counts on continuous exposure, compared to baseline ([1]; vancomycin 500 μg/mL): did not significantly reduce spore counts

ramoplanin
persistence of bactericidal effect after washes ([2]; multiple washes (×6)): effect persists after multiple washes | exposure time giving maximal effect ([2]; no apparent difference in effect vs. time): 30 min | viability of ramoplanin-exposed spores when plated ([2]; ramoplanin 300 μg/mL (below fecal level), ribotype 027): non-viable | organism recovery from 30 min after exposure and wash through day 28 ([3]; 30 min/37 C exposure, 6 washes, stored at 37 C anaerobic): no organisms are recoverable | inhibition of spore growth relative to controls ([3]; ramoplanin 2 μg/mL, 30 min exposure, over 28 days): no inhibition relative to controls | mean spore counts ±SEM over 28 days ([3]; ramoplanin 2 μg/mL, 30 min exposure, six washes): 2.3×10^4±4.6×10^2 | spore counts after diluting samples 10× ([3]; ramoplanin 300 μg/mL and 600 μg/mL, 30 min exposure): growth not measurable at previous dilution; also recorded: spore counts similar to the 0 and 2 μg/mL exposed spores | spore growth when plated undiluted ([3]; ramoplanin 300 μg/mL, 30 min exposure, six washes): no counts; also recorded: no growth | spore growth when plated undiluted ([3]; ramoplanin 600 μg/mL, 30 min exposure, six washes): no counts; also recorded: no growth | growth-inhibitory effect when exosporia were removed before or after exposure ([4]; after multiple washes): not present | spore counts, spores processed after exposure (stripped exosporia) ([4]; ramoplanin 300 μg/mL, exosporia removed after exposure): counts equivalent to water exposure | spore growth, unprocessed spores (intact exosporia) ([4]; ramoplanin 300 μg/mL, no subsequent spore processing): no measurable counts; also recorded: no growth | C. difficile recovery, spores stripped of the exosporium ([4]; ramoplanin 600 μg/mL, 30 min): high organism recovery | C. difficile recovery, spores with intact exosporium ([4]; ramoplanin 600 μg/mL, 30 min): non-recoverable C. difficile | spore counts on continuous exposure ([1]; ramoplanin 300 μg/mL): no counts; also recorded: no growth
